The values that follow come from US11220534B2, “Treatment of neurological diseases” (Lancaster University Business Enterprises Limited, priority 2016, dated 2022).

One test has as its system C57BL/6 mice given MPTP. In words: Rotarod motor control test in the MPTP Parkinson mouse model. It counts as in vivo. As to conditions: 10 nmol/kg i.p. once daily for 2 weeks, FIG. 3, N=6 per group. The text has this: A standard model to induce Parkinson like symptoms in mice is the injection of the chemical (MPTP) (Li et al., 2009). This chemical impairs or kills neurons in the brain that produce dopamine. The mice develop motor impairments, and the dopaminergic neurons in the brain are reduced in numbers and function. The enzyme tyrosine hydroxylase (TH) is required to synthesise dopamine. A loss of TH signifies a loss of dopamine production (Harkavyi et al., 2008).
Adult male C57BL/6 mice were given the dopaminergic toxin MPTP (20 mg/kg in 0.1 mL of PBS i.p. at 2-h intervals of 4 doses MPTP; Sigma) or vehicle (PBS) for one day. This treatment selectively affects dopaminergic neurons and induces Parkinson-like symptoms in mice.
The dose of peptide tested was 10 nmol/kg body weight. The peptides were administered by a once-daily intraperitoneal injection for 2 weeks. Saline injections were administered as a control. Six animals per group were injected with a peptide or a saline control.
The rotarod consists of a rotating pole that accelerates over time. Mice are placed on the rod, and motor skills are tested by accelerating the rotation. As the rotation increases, animals lose grip and fall on a cushion located below the rod. […] Each animal's endurance time was recorded, and the average was calculated. Data were analysed using a one-way ANOVA with post-hoc Bonferroni tests.

Test [1] deals with APP/PS1 mice. In words: Classical Morris water maze test. In kind it is in vivo. The text has this:
Materials and methods in Example 2 are the same as Example 1 except when stated. Reagents used in Example 2 only include antibodies to p-PI3Kp85, PI3Kp85, p-Akt (ser473), Akt, p-GSK3β (Y216), and GSK3β from Abcam, Inc. Cambridge, UK. The antibody to p-tau (AT8) from Thermo Scientific USA. Mouse Anti-β-actin, Anti-Rabbit IgG, Anti-mouse IgG, CY3-Anti-mouse IgG, RIPA Lysate, BCA Protein Assay Kit, DAPI staining solution and Anti-fluorescence decay agent from Boster (Wuhan, China).
Classical Morris water maze (MWM) test was used to investigate spatial reference memory of mouse. The water maze mainly included a stainless steel pool and a platform in the pool for escape. There were several landmarks fixed to the walls of the water maze. The pool was filled with tap water at 22±2° C. The first phase was acquisition trial phase which was consisted of five training days (days 1-5) and four trials each day. The pool (diameter, 120 cm; high, 50 cm) was divided into four quadrants and the escape platform (diameter, 12 cm) hidden 1 cm beneath the water surface was placed in the center of the first quadrant. […] The escape latencies were recorded by Ethovision 3.0 software system (Noldus Information Technology, the Netherlands). […] The percentage of swimming time in target quadrant (the first quadrant) and frequency of platform crossing were recorded. […] Swimming time to target was recorded.

Test [2] has as its system APP/PS1 mice. In words: In vivo hippocampal measurements of L-LTP in AD mice. The note with it: N=6 per group. The text has this:
Materials and methods in Example 2 are the same as Example 1 except when stated. Reagents used in Example 2 only include antibodies to p-PI3Kp85, PI3Kp85, p-Akt (ser473), Akt, p-GSK3β ([…]), and GSK3β from Abcam, Inc. Cambridge, UK. The antibody to p-tau (AT8) from Thermo Scientific USA. Mouse Anti-β-actin, Anti-Rabbit IgG, Anti-mouse IgG, CY3-Anti-mouse IgG, RIPA Lysate, BCA Protein Assay Kit, DAPI staining solution and Anti-fluorescence decay agent from Boster (Wuhan, China). Mice were anesthetized with urethane (Sigma, UK, 1.5 g/kg, i.p.) and placed in a stereotaxic apparatus (RWD Life Science, China) for L-LTP recording. Cut off the scalp and expose the skull, small holes were drilled on one side of the skull (2.0 mm posterior to bregma and 1.5 mm lateral to the midline). […] Baseline fEPSPs were elicited by test stimuli at an interval of 30 seconds and 30 minutes fEPSPs were recorded to observe whether the underlying synaptic transmission is affected. […] The change in PPF ratio, calculated by dividing the slope of the second fEPSP by the slope of the first fEPSP, is viewed to be related with the changes in neurotransmitter release from presynaptic terminals. […] The fEPSPs were recorded for 180 minutes after HFS. All events were recorded by a biological signal processing system (Chengdu Instruments Ltd, China). […]

Test [3] concerns PI3K/AKT/GSK3β signalling pathway. In words: Western blotting for hippocampal levels of PI3K/AKT/GSK3β. It counts as in vivo. The note with it: APP/PS1 mice; FIG. 11; N=6 per group. The text has this:
Materials and methods in Example 2 are the same as Example 1 except when stated. Reagents used in Example 2 only include antibodies to p-PI3Kp85, PI3Kp85, p-Akt (ser473), Akt, p-GSK3β ([…]), and GSK3β from Abcam, Inc. Cambridge, UK. The antibody to p-tau (AT8) from Thermo Scientific USA. Mouse Anti-β-actin, Anti-Rabbit IgG, Anti-mouse IgG, CY3-Anti-mouse IgG, RIPA Lysate, BCA Protein Assay Kit, DAPI staining solution and Anti-fluorescence decay agent from Boster (Wuhan, China). The hippocampi of mouse were dissected and homogenized in tissue protein extraction reagent, and protein concentration was measured using BCA Protein Assay Kit. A total of 50 μg of protein was used from each sample. Sample proteins were separated on 12% SDS-polyacrylamide gels. After that, the proteins were transferred onto PVDF membranes and nonspecific binding was blocked with 5% BSA. A primary antibody was used to incubate the membranes overnight at 4° C., followed by a secondary antibody for 2 h. The optical density of the target strip (p-PI3K, t-PI3K, p-AKT, t-AKT, p-GSK3β and t-GSK3β) was analyzed by using a gel image processing system. Data were analysed using a one-way ANOVA with post-hoc Bonferroni tests. The results are illustrated in FIGS. 5 to 11.

Where no end group is shown, it is not given here. [ ]: non-standard residue; d: D form. Aib = CC(C)(N)C(=O)O

Regarding “YXEGTFTSDYSIYLDKQAAXEFVNWLLAGGPSSGAPPPSKRRQRRKKRGY-NH2 (Y[Aib]EGTFTSDYSIYLDKQAA[Aib]EFVNWLLAGGPSSGAPPPSKRRQRRKKRGY-NH2) [DA5, No. 12; X=aminoisobutyric acid]”, the “impairment of motor skills (rotarod endurance time)” value with C57BL/6 mice given MPTP was “protect mice from an impairment of motor skills induced by MPTP”. Moreover, the “probe test, recall of the escape route (classical Morris water maze)” value in the test on APP/PS1 mice [1] (APP/PS1 mice vs APP/PS1-saline, FIG. 7c, 7d) is reported as “recalled the escape route to a greater extent than APP/PS1-saline mice”. In addition, in the test with APP/PS1 mice [1] (APP/PS1 mice, FIG. 7, N=8-14 per group), the “disorder in spatial memory (classical Morris water maze)” value was “ameliorated”. Moreover, the “levels of L-LTP post neuronal stimuli” value in the test with APP/PS1 mice [2] (APP/PS1 mice, FIG. 9b) is reported as “maintained high levels of L-LTP post neuronal stimuli”. In the test with APP/PS1 mice [2] (APP/PS1 transgenic mice, pre-treatment, FIG. 9a), the “depression of L-LTP in the hippocampus” value was “able to reverse the depression of L-LTP”. Besides, the “activation of GSK3β / PI3K/AKT signalling (western blot, hippocampus)” value in test [3] is recorded as “prevents excessive activation of GSKβ by upregulating P13/AKT signalling”.
